Patent US8324258B2, “F1F0-ATPase inhibitors and related methods” (The Regents of the University of Michigan, priority 2007, dated 2012)

Key:
Ramos cells = assay: Cytotoxicity (cell death) in Ramos cells; assay type: cell-based
Description: (§1) The compounds listed in Table 9 were tested for activity against F1F0-ATPase by measuring ATP synthesis and ATP hydrolysis. In addition, the compounds were assessed for cytotoxicity in Ramos cells Inhibition of ATP synthesis and hydrolysis by the F1F0-ATPase and cytotoxicity in Ramos cells was measured as described in K. M. Johnson et al. Chemistry & Biology 2005, 12, 485-496.

F1F0-ATPase [1] = molecular target: T1, F1F0-ATPase (Bos taurus, UniProt P13621); assay: Inhibition of ATP synthesis by the F1F0-ATPase; assay type: biochemical; conditions: IC40: concentration for 40% inhibition
Description: as §1

F1F0-ATPase [2] = molecular target: T1, F1F0-ATPase; assay: Inhibition of ATP hydrolysis by the F1F0-ATPase; assay type: biochemical; conditions: IC40: concentration for 40% inhibition
Description: as §1

Structure (SMILES)	EC50 (Ramos cells; Ramos cells)	ATP Synthesis (IC40 μM) (F1F0-ATPase [1])	ATP Hydrolysis (IC40 μM) (F1F0-ATPase [2])	EC50 (Ramos cells; Homo sapiens, Ramos)
O=C(N=C(NCCc1c[nH]cn1)Nc1ccccc1-c1ccccc1)c1ccccc1Cl [Compound I-1, (Z/E)-N-((2-(1H-imidazol-4-yl)ethylamino)(biphenyl-2-ylamino)methylene)-2-chlorobenzamide]	> 30 µM	>20 µM	>30 µM	–
Cc1ccccc1C(=O)N=C(NCCc1c[nH]cn1)Nc1ccccc1-c1ccccc1 [Compound I-3, (E/Z)—N-((2-(1H-imidazol-4-yl)ethylamino)(biphenyl-2-ylamino)methylene)-2-methylbenzamide]	> 30 µM	>20 µM	>30 µM	–
Cc1cccc(C(=O)N=C(NCCc2c[nH]cn2)Nc2ccccc2-c2ccccc2)c1 [Compound I-4, (E/Z)—N-((2-(1H-imidazol-4-yl)ethylamino)(biphenyl-2-ylamino)methylene)-3-methylbenzamide]	> 20 µM	>10 µM	>20 µM	–
Cc1ccc(C(=O)N=C(NCCc2c[nH]cn2)Nc2ccccc2-c2ccccc2)cc1 [Compound I-5, (E/Z)—N-((2-(1H-imidazol-4-yl)ethylamino)(biphenyl-2-ylamino)methylene)-4-methylbenzamide]	> 20 µM	>10 µM	>10 µM	–
O=C(N=C(NCCc1c[nH]cn1)Nc1ccccc1-c1ccccc1)c1ccccc1 [Compound I-7, (Z/E)-N-((2-(1H-imidazol-4-yl)ethylamino)(biphenyl-2-ylamino)methylene)benzamide]	> 30 µM	>20 µM	>30 µM	–
O=C(N=C(NCCc1c[nH]cn1)Nc1ccccc1-c1ccccc1)c1cccc(Cl)c1 [Compound I-8, (Z/E)-N-((2-(1H-imidazol-4-yl)ethylamino)(biphenyl-2-ylamino)methylene)-3-chlorobenzamide]	> 20 µM	>10 µM	>10 µM	–
O=C(/N=C(/NCCc1c[nH]cn1)Nc1cccc2[nH]ccc12)c1cccc(Cl)c1 [Compound V-1, (Z/E)-N-((2-(1H-imidazol-4-yl)ethylamino)(1H-indol-4-ylamino)methylene)-3-chlorobenzamide]	–	>10 µM	>10 µM	> 30 µM
O=C(/N=C(/NCCc1c[nH]cn1)Nc1ccc2[nH]ccc2c1)c1cccc(Cl)c1 [Compound V-2, (Z/E)-N-((2-(1H-imidazol-4-yl)ethylamino)(1H-indol-5-ylamino)methylene)-3-chlorobenzamide]	–	>10 µM	>20 µM	> 20 µM
O=C(/N=C(/NCCc1c[nH]cn1)Nc1ccc2cc[nH]c2c1)c1cccc(Cl)c1 [Compound V-3, (Z/E)-N-((2-(1H-imidazol-4-yl)ethylamino)(1H-indol-6-ylamino)methylene)-3-chlorobenzamide]	–	>10 µM	<10 µM	> 20 µM
O=C(/N=C(/NCCc1c[nH]cn1)Nc1cccc2cc[nH]c12)c1cccc(Cl)c1 [Compound V-4, (Z/E)-N-((2-(1H-imidazol-4-yl)ethylamino)(1H-indol-7-ylamino)methylene)-3-chlorobenzamide]	–	>10 µM	>10 µM	> 30 µM
O=C(N=C(NCCc1c[nH]cn1)Nc1ccc(-c2ccccc2)cc1)c1ccc(Cl)cc1 [II-1, (Z/E)-N-((2-(1H-imidazol-4-yl)ethylamino)(biphenyl-4-ylamino)methylene)-4-chlorobenzamide]	> 30 µM	>10 µM	>10 µM	–
Cc1cccc(C(=O)N=C(NCCc2c[nH]cn2)Nc2ccc(-c3ccccc3)cc2)c1 [II-2, (Z/E)-N-((2-(1H-imidazol-4-yl)ethylamino)(biphenyl-4-ylamino)methylene)-3-methylbenzamide]	> 30 µM	>10 µM	>10 µM	–
